Results taken from ChEMBL document CHEMBL3991601, “The target landscape of clinical kinase drugs” (Science, 2017).
Active and inactive are the calls of the source. Cut-off read from the data, not from the text of the source, for most assays here: actives have a measured Kd and inactives only a lower limit.

Key:
[1] = molecular target: T1, Serine/threonine-protein kinase ULK3 (Homo sapiens, UniProt Q6PHR2)
T1 sequence (Q6PHR2 whole entry): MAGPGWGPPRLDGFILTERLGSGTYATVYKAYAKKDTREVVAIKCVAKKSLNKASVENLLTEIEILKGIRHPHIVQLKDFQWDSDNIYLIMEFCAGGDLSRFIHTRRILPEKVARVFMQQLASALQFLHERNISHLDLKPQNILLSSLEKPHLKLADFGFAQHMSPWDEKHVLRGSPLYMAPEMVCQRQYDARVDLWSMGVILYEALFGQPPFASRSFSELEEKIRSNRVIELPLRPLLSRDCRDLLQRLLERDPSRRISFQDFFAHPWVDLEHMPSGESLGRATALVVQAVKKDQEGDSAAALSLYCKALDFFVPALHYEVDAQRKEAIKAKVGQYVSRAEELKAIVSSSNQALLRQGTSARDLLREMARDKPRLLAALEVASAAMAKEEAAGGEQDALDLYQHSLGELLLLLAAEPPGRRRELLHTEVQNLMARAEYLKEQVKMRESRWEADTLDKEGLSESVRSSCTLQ

[2] = molecular target: T2, Membrane-associated tyrosine- and threonine-specific cdc2-inhibitory kinase (Homo sapiens, UniProt Q99640)
T2 sequence (Q99640 whole entry): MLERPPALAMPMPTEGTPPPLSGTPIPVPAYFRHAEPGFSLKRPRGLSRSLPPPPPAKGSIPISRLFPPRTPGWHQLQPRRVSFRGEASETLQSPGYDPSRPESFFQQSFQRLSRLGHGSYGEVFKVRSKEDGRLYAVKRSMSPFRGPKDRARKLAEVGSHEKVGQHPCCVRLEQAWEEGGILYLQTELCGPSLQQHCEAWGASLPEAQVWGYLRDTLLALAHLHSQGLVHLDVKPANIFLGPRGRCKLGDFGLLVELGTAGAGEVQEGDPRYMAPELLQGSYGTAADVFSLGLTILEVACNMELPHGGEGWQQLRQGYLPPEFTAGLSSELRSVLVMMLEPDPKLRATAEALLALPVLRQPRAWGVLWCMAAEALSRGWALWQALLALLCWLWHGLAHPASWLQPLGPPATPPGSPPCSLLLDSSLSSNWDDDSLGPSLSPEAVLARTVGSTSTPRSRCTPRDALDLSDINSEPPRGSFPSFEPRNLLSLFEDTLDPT

[3] = molecular target: T3, Activin receptor type-1 (Homo sapiens, UniProt Q04771)
T3 sequence (Q04771 whole entry): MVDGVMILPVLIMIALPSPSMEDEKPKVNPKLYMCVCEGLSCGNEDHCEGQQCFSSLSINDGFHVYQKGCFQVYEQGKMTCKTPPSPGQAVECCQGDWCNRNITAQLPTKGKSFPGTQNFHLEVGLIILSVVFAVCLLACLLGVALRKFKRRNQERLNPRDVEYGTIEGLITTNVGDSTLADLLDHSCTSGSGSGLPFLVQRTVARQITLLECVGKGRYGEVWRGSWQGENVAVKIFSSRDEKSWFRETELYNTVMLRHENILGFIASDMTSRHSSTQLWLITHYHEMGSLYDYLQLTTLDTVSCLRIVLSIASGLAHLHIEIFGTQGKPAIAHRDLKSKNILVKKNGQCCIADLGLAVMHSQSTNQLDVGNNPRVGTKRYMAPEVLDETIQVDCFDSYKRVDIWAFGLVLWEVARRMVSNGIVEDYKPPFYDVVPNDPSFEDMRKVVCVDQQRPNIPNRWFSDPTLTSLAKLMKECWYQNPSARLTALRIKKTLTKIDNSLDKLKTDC

[4] = molecular target: Tyrosine-protein kinase JAK1 (Homo sapiens, UniProt P23458)
Chain of Tyrosine-protein kinase JAK1 (P23458 whole entry): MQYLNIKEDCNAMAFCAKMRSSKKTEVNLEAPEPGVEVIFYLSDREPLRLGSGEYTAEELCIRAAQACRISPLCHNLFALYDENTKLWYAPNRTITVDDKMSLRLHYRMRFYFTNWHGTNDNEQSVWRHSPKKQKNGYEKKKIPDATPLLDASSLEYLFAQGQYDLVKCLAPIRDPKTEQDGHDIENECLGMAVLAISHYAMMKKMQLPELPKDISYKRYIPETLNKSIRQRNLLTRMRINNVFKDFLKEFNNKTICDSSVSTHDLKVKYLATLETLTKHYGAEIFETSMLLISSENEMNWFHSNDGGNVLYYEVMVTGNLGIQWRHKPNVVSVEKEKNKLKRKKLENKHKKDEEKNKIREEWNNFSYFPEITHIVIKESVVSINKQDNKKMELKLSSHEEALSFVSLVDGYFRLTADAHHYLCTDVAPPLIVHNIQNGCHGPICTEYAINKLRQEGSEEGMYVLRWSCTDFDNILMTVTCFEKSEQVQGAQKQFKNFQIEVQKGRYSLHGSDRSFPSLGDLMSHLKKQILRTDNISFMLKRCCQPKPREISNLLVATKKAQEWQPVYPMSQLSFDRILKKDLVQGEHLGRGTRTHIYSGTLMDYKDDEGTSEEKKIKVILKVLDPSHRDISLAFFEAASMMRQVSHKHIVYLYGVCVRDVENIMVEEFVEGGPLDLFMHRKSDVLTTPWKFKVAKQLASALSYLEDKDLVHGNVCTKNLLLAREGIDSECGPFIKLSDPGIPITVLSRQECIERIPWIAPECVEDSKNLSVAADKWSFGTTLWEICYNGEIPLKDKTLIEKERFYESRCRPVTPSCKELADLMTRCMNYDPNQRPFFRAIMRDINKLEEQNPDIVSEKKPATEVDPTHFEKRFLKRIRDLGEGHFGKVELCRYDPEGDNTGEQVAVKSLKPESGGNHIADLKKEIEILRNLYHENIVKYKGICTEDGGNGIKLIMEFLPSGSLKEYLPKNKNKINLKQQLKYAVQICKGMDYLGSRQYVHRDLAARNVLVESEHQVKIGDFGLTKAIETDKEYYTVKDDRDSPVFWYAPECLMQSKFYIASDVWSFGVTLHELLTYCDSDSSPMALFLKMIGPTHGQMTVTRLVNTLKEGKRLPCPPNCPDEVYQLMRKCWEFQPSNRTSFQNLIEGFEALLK

[5] = molecular target: T4, Uncharacterized protein FLJ45252 (Homo sapiens, UniProt Q6ZSR9); conditions: read-out: Kd apparent; k-562, colo 205, sk-n-be(2) and mv-4-11
T4 sequence (Q6ZSR9 whole entry): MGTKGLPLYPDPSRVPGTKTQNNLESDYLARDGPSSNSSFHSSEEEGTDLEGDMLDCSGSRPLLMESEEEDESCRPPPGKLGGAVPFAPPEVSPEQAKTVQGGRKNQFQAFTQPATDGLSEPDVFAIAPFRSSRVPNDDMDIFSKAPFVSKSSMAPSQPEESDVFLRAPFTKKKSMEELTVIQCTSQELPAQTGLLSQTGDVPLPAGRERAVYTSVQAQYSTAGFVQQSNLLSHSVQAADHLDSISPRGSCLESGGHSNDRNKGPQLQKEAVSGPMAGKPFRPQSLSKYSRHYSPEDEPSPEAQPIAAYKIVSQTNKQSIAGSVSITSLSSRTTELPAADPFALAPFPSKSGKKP

[6] = molecular target: Proto-oncogene tyrosine-protein kinase Src (Homo sapiens, UniProt P12931)
Chain of Proto-oncogene tyrosine-protein kinase Src (P12931 2-536 limits assumed): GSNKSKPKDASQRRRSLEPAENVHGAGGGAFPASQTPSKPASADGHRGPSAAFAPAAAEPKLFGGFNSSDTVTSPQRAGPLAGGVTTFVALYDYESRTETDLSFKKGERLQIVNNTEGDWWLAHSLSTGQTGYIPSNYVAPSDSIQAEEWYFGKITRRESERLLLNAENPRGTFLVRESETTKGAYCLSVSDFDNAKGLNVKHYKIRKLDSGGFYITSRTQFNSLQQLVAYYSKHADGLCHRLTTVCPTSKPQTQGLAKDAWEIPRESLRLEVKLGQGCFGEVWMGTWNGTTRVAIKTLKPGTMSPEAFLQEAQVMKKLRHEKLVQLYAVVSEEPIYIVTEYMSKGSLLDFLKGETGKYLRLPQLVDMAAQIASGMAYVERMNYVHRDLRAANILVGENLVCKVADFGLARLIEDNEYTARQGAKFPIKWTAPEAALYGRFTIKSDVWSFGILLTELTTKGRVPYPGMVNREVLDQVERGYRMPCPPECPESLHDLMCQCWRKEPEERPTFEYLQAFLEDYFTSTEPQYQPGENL

[7] = molecular target: LIM domain kinase 2 (Homo sapiens, UniProt P53671)
Chain of LIM domain kinase 2 (P53671 whole entry, the tested form may be a part): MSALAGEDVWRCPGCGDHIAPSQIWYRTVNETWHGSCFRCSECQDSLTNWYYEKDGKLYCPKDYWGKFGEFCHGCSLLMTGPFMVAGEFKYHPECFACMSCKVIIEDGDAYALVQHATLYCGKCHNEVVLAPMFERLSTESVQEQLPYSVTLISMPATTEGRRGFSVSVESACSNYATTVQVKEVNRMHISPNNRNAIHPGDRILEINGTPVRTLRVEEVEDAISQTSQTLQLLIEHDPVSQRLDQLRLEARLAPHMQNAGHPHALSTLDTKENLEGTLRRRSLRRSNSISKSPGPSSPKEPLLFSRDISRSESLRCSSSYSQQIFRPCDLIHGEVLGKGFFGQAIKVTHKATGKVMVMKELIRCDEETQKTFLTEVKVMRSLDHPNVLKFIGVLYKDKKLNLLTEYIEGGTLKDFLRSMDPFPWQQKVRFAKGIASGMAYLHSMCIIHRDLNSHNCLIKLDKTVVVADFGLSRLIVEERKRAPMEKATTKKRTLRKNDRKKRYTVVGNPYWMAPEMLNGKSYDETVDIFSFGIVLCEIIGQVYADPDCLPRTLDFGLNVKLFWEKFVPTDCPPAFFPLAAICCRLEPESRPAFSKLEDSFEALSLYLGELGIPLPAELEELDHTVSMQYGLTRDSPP

[8] = molecular target: T5, Discoidin domain-containing receptor 2 (Homo sapiens, UniProt Q16832)
T5 sequence (Q16832 whole entry): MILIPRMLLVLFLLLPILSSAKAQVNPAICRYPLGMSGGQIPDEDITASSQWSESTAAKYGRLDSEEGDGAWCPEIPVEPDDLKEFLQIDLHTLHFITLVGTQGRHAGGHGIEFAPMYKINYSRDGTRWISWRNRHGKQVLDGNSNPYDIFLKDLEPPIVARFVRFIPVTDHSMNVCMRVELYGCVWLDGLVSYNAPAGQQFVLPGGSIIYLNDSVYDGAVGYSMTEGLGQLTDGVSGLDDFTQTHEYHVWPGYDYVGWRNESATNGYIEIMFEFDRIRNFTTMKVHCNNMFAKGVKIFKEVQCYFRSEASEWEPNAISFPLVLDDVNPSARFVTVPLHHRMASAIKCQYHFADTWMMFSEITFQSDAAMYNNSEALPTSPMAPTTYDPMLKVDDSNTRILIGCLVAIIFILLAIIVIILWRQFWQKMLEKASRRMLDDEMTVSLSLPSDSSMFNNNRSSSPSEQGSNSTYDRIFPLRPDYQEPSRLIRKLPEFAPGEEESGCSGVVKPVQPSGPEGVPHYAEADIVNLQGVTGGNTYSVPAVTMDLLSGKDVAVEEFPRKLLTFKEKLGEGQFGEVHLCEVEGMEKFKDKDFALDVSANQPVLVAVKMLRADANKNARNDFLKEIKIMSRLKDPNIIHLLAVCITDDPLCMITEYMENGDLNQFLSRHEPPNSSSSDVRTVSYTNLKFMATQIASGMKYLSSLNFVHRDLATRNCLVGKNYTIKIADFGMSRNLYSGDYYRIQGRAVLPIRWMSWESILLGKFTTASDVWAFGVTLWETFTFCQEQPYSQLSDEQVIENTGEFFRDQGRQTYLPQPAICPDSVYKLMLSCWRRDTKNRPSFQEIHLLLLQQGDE

[9] = molecular target: Epithelial discoidin domain-containing receptor 1 (Homo sapiens, UniProt Q08345)
Chain of Epithelial discoidin domain-containing receptor 1 (Q08345 whole entry, the tested form may be a part): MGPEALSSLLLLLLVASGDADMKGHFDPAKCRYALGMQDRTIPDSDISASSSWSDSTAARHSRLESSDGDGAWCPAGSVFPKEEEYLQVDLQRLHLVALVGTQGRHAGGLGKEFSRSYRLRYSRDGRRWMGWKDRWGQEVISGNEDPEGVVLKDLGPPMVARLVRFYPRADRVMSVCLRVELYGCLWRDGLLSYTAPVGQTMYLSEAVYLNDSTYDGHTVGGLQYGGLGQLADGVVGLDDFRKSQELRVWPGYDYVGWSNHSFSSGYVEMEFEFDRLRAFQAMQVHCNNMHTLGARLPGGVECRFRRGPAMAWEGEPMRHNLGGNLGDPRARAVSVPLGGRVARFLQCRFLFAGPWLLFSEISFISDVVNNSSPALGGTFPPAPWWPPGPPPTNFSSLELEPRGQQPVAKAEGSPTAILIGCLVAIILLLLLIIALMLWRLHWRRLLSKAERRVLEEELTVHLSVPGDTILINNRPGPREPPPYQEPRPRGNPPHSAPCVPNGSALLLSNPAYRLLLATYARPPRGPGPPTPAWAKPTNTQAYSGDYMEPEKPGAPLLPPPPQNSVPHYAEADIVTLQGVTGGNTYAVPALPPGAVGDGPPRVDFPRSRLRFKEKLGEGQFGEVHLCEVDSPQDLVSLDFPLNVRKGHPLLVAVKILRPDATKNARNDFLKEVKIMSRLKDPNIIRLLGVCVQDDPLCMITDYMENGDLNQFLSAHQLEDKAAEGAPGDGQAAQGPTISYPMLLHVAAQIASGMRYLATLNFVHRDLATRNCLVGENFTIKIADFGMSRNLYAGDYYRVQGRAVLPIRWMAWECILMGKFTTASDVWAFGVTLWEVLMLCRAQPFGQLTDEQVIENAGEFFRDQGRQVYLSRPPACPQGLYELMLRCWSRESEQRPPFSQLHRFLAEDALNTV
Note: in the data inactive means no Kd found up to 30 µM.

Row | Compound | Kd [1] | Kd [2] | Kd [3] | Kd [4] | Kd [5] | Kd [6] | Kd [7] | Kd [8] | Kd [9]
1 | O=c1sn(-c2cccc3ccccc23)c(=O)n1Cc1ccccc1 [TIDEGLUSIB] | > 30 µM (inactive) | > 30 µM (inactive) | > 30 µM (inactive) | > 30 µM (inactive) | > 30 µM (inactive) | > 30 µM (inactive) | > 30 µM (inactive) | > 30 µM (inactive) | > 30 µM (inactive)
2 | COc1cc(OC)c(/C=C/S(=O)(=O)Cc2ccc(OC)c(NCC(=O)O)c2)c(OC)c1 [RIGOSERTIB] | > 30 µM (inactive) | > 30 µM (inactive) | > 30 µM (inactive) | > 30 µM (inactive) | > 30 µM (inactive) | > 30 µM (inactive) | > 30 µM (inactive) | > 30 µM (inactive) | > 30 µM (inactive)
3 | COC(=O)N[C@@H](C)CNc1nccc(-c2cn(C(C)C)nc2-c2cc(Cl)cc(NS(C)(=O)=O)c2F)n1 [ENCORAFENIB] | > 30 µM (inactive) | > 30 µM (inactive) | > 30 µM (inactive) | > 30 µM (inactive) | > 30 µM (inactive) | > 30 µM (inactive) | 0.096 µM (active) | > 30 µM (inactive) | > 30 µM (inactive)
4 | Cn1cc(-c2ccc3nnc(C(F)(F)c4ccc5ncccc5c4)n3n2)cn1 [JNJ-38877605] | > 30 µM (inactive) | > 30 µM (inactive) | > 30 µM (inactive) | > 30 µM (inactive) | > 30 µM (inactive) | > 30 µM (inactive) | > 30 µM (inactive) | > 30 µM (inactive) | > 30 µM (inactive)
5 | Cn1ncc(Cl)c1-c1cc(C(=O)N[C@H](CN)Cc2cccc(F)c2)sc1Cl [AFURESERTIB] | > 30 µM (inactive) | > 30 µM (inactive) | > 30 µM (inactive) | > 30 µM (inactive) | > 30 µM (inactive) | > 30 µM (inactive) | > 30 µM (inactive) | > 30 µM (inactive) | > 30 µM (inactive)
6 | Cc1cc(-c2cc(O)ccc2Cl)cc2nnc(Nc3ccc(OCCN4CCCC4)cc3)nc12 | > 30 µM (inactive) | > 30 µM (inactive) | > 30 µM (inactive) | > 30 µM (inactive) | > 30 µM (inactive) | 0.001 µM (active) | > 30 µM (inactive) | 0.004 µM (active) | 0.003 µM (active)
7 | O=C(c1ccc(F)c(F)c1Nc1ccc(I)cc1F)N1CC(O)([C@@H]2CCCCN2)C1 [COBIMETINIB] | > 30 µM (inactive) | > 30 µM (inactive) | > 30 µM (inactive) | > 30 µM (inactive) | > 30 µM (inactive) | > 30 µM (inactive) | > 30 µM (inactive) | > 30 µM (inactive) | > 30 µM (inactive)

Other lines, results leading:

Row | Kd [1] | Kd [2] | Kd [3] | Kd [4] | Kd [5] | Kd [6] | Kd [7] | Kd [8] | Kd [9] | Compound
8 | > 30 µM (inactive) | > 30 µM (inactive) | 0.458 µM (active) | > 30 µM (inactive) | > 30 µM (inactive) | > 30 µM (inactive) | > 30 µM (inactive) | > 30 µM (inactive) | > 30 µM (inactive) | CN1CCC(CNc2ccc3ncc(-c4cccc(OC(F)(F)F)c4)n3n2)CC1 [SGI-1776]
9 | > 30 µM (inactive) | > 30 µM (inactive) | > 30 µM (inactive) | > 30 µM (inactive) | > 30 µM (inactive) | > 30 µM (inactive) | > 30 µM (inactive) | > 30 µM (inactive) | > 30 µM (inactive) | C[C@@H](c1ccc2nccn2c1)n1nnc2ncc(-c3cnn(C)c3)nc21 [SAVOLITINIB]
10 | > 30 µM (inactive) | > 30 µM (inactive) | > 30 µM (inactive) | > 30 µM (inactive) | 9.31 µM (active) | > 30 µM (inactive) | > 30 µM (inactive) | > 30 µM (inactive) | > 30 µM (inactive) | CN(C)C(=O)c1cc2cnc(Nc3ccc(N4CCNCC4)cn3)nc2n1C1CCCC1 [RIBOCICLIB]
11 | > 30 µM (inactive) | > 30 µM (inactive) | 0.022 µM (active) | > 30 µM (inactive) | 0.052 µM (active) | > 30 µM (inactive) | 52.1 µM (active) | > 30 µM (inactive) | 71.5 µM (active) | C1=C/COCc2cc(ccc2OCCN2CCCC2)Nc2nccc(n2)-c2cccc(c2)COC/1 [PACRITINIB]
12 | > 30 µM (inactive) | > 30 µM (inactive) | > 30 µM (inactive) | > 30 µM (inactive) | > 30 µM (inactive) | > 30 µM (inactive) | > 30 µM (inactive) | > 30 µM (inactive) | > 30 µM (inactive) | N[C@@H]1CCCN(c2c(/C=C3\SC(=O)NC3=O)cccc2-c2ccccc2)C1
13 | > 30 µM (inactive) | > 30 µM (inactive) | > 30 µM (inactive) | > 30 µM (inactive) | > 30 µM (inactive) | > 30 µM (inactive) | > 30 µM (inactive) | > 30 µM (inactive) | > 30 µM (inactive) | CNC(=O)CN1CCC(Oc2cc3c(Nc4cccc(Cl)c4F)ncnc3cc2OC)CC1 [SAPITINIB]
14 | > 30 µM (inactive) | > 30 µM (inactive) | > 30 µM (inactive) | > 30 µM (inactive) | > 30 µM (inactive) | > 30 µM (inactive) | > 30 µM (inactive) | > 30 µM (inactive) | > 30 µM (inactive) | C[C@@H]1CN(Cc2ccc(F)cc2)[C@@H](C)CN1C(=O)c1cc2c(C(=O)C(=O)N(C)C)cn(C)c2cc1Cl [TALMAPIMOD]
